Measured values from ChEMBL document CHEMBL3991601, “The target landscape of clinical kinase drugs” (Science, 2017).
The source made the active and inactive calls. For most assays here, no stated cut-off is given here; in the data, actives have a measured Kd and inactives only a lower limit.

Experiments:
[1] = molecular target: Maternal embryonic leucine zipper kinase (Homo sapiens, UniProt Q14680)
[2] = molecular target: Mitogen-activated protein kinase 9 (Homo sapiens, UniProt P45984)
[3] = molecular target: Tyrosine-protein kinase BTK (Homo sapiens, UniProt Q06187)
[4] = molecular target: T1, Tyrosine-protein kinase Tec (Homo sapiens, UniProt P42680)
T1 sequence (P42680 whole entry): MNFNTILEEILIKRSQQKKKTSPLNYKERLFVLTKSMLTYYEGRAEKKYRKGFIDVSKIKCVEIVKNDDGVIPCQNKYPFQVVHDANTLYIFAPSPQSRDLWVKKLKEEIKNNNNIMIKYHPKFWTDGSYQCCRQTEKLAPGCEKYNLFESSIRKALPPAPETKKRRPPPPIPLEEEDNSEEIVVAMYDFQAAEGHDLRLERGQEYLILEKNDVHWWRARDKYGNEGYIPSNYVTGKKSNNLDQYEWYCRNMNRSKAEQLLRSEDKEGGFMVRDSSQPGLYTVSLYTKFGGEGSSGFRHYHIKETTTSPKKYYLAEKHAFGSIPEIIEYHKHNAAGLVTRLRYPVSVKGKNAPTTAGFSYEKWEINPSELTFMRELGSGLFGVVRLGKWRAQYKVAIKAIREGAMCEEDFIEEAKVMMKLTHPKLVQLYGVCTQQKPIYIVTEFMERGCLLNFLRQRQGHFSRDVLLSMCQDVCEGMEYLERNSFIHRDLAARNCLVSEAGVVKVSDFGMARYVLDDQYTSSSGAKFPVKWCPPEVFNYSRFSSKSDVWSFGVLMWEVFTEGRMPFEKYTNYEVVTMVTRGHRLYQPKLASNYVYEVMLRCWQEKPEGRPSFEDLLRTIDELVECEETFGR

[5] = molecular target: Inosine-5'-monophosphate dehydrogenase 2 (Homo sapiens, UniProt P12268)
TGF-beta receptor type-2 = TGF-beta receptor type-2 (Homo sapiens, UniProt P37173)
DNA topoisomerase 2-beta = DNA topoisomerase 2-beta (Homo sapiens, UniProt Q02880)
[6] = molecular target: T2, Ferrochelatase, mitochondrial (Homo sapiens, UniProt P22830)
T2 sequence (P22830 whole entry): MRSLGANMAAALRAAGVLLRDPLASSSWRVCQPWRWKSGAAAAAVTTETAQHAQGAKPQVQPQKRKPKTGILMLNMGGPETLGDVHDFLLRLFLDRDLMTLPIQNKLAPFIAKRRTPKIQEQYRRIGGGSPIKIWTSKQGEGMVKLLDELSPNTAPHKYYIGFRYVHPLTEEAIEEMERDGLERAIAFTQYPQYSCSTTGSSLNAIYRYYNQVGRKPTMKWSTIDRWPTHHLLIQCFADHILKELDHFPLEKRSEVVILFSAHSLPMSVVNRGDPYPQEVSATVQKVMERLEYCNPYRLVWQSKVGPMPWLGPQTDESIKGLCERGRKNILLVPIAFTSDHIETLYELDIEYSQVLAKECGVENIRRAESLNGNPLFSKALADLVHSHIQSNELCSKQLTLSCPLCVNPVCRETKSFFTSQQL

[7] = molecular target: Cyclin-dependent kinase 12 (Homo sapiens, UniProt Q9NYV4)
[8] = molecular target: T3, Acyl-CoA dehydrogenase family member 11 (Homo sapiens, UniProt Q709F0)
T3 sequence (Q709F0 whole entry): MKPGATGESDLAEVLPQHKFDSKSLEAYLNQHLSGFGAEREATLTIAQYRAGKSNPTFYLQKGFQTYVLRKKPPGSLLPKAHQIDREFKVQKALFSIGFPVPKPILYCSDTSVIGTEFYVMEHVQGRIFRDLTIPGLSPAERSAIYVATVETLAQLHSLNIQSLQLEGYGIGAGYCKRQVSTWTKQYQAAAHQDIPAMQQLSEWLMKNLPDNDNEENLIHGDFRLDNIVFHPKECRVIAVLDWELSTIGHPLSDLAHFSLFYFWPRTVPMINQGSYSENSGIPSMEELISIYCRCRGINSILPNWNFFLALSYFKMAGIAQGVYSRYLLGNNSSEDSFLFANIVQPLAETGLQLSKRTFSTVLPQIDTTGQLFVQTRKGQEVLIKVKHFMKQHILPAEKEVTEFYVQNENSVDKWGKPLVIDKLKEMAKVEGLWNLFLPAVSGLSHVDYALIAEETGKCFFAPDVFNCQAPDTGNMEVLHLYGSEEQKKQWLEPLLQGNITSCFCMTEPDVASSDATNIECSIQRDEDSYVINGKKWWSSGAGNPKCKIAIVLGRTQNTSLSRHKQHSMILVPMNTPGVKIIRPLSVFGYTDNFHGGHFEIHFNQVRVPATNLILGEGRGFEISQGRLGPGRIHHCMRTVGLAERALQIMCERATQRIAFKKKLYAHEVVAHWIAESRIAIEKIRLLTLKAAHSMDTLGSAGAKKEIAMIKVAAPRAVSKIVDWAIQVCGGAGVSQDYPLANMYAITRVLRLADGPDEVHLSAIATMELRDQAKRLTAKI

[9] = molecular target: Proto-oncogene tyrosine-protein kinase Src (Homo sapiens, UniProt P12931)
[10] = molecular target: Dual specificity mitogen-activated protein kinase kinase 2 (Homo sapiens, UniProt P36507)
[11] = molecular target: 5'-AMP-activated protein kinase catalytic subunit alpha-1 (Homo sapiens, UniProt Q13131)
[12] = molecular target: Ribosomal protein S6 kinase alpha-5 (Homo sapiens, UniProt O75582)
[13] = molecular target: Mitotic checkpoint serine/threonine-protein kinase BUB1 (Homo sapiens, UniProt O43683)
[14] = molecular target: T4, Uncharacterized protein FLJ45252 (Homo sapiens, UniProt Q6ZSR9); settings: read-out: Kd apparent; k-562, colo 205, sk-n-be(2) and mv-4-11
T4 sequence (Q6ZSR9 whole entry): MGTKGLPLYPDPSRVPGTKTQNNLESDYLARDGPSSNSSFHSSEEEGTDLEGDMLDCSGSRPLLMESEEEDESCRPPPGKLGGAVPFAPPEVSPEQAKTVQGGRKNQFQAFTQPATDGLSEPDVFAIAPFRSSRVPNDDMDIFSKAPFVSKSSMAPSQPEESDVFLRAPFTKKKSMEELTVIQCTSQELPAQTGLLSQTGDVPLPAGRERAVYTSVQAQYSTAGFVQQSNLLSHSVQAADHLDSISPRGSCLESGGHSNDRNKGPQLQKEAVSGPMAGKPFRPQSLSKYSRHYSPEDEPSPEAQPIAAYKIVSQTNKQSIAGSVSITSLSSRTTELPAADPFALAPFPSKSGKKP

Tyrosine-protein kinase BTK, sequence (Q06187 whole entry): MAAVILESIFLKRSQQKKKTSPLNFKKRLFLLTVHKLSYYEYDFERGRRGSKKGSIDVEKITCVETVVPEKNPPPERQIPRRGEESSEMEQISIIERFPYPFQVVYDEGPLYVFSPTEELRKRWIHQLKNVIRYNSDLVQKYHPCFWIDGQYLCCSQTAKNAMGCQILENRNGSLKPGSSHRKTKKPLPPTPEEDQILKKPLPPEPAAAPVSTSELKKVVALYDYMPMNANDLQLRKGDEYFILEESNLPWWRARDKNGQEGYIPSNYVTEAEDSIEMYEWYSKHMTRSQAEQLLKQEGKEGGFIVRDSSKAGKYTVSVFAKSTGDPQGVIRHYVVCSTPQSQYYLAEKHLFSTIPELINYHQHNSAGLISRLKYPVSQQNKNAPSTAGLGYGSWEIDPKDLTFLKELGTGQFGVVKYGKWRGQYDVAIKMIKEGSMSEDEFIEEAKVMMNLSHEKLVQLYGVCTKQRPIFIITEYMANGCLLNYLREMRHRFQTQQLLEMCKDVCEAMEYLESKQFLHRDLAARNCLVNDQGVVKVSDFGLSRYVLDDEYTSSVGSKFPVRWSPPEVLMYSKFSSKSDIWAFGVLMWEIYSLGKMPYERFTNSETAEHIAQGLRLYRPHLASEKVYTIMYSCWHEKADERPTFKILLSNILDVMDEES
Mitogen-activated protein kinase 9, sequence (P45984 whole entry): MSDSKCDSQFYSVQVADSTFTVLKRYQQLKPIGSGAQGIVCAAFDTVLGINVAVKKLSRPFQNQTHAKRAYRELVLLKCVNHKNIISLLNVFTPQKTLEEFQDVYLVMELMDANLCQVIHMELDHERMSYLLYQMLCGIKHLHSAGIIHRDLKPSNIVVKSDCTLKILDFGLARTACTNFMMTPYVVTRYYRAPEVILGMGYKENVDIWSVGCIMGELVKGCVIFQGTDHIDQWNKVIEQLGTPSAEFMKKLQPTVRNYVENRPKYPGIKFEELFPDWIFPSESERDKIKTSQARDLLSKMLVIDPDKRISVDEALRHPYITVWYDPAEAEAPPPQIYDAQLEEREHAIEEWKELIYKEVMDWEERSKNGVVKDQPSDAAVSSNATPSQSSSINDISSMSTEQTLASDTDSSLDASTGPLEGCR
5'-AMP-activated protein kinase catalytic subunit alpha-1, sequence (Q13131 whole entry): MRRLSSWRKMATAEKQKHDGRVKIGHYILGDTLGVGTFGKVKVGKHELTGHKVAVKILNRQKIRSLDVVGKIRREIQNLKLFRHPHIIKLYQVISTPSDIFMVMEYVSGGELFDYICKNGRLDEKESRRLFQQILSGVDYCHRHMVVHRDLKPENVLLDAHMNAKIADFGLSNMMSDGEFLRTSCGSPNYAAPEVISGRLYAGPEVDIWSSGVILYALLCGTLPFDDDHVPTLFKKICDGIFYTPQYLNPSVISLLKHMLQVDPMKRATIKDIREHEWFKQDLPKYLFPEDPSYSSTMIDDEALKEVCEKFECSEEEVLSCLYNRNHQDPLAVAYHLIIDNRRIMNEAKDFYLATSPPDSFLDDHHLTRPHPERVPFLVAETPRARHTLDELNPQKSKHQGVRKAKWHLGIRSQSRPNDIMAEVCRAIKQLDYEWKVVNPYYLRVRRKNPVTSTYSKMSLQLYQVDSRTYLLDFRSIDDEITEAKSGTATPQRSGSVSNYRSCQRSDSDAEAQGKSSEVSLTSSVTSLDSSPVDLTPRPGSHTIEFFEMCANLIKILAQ
Cyclin-dependent kinase 12, sequence (Q9NYV4 whole entry): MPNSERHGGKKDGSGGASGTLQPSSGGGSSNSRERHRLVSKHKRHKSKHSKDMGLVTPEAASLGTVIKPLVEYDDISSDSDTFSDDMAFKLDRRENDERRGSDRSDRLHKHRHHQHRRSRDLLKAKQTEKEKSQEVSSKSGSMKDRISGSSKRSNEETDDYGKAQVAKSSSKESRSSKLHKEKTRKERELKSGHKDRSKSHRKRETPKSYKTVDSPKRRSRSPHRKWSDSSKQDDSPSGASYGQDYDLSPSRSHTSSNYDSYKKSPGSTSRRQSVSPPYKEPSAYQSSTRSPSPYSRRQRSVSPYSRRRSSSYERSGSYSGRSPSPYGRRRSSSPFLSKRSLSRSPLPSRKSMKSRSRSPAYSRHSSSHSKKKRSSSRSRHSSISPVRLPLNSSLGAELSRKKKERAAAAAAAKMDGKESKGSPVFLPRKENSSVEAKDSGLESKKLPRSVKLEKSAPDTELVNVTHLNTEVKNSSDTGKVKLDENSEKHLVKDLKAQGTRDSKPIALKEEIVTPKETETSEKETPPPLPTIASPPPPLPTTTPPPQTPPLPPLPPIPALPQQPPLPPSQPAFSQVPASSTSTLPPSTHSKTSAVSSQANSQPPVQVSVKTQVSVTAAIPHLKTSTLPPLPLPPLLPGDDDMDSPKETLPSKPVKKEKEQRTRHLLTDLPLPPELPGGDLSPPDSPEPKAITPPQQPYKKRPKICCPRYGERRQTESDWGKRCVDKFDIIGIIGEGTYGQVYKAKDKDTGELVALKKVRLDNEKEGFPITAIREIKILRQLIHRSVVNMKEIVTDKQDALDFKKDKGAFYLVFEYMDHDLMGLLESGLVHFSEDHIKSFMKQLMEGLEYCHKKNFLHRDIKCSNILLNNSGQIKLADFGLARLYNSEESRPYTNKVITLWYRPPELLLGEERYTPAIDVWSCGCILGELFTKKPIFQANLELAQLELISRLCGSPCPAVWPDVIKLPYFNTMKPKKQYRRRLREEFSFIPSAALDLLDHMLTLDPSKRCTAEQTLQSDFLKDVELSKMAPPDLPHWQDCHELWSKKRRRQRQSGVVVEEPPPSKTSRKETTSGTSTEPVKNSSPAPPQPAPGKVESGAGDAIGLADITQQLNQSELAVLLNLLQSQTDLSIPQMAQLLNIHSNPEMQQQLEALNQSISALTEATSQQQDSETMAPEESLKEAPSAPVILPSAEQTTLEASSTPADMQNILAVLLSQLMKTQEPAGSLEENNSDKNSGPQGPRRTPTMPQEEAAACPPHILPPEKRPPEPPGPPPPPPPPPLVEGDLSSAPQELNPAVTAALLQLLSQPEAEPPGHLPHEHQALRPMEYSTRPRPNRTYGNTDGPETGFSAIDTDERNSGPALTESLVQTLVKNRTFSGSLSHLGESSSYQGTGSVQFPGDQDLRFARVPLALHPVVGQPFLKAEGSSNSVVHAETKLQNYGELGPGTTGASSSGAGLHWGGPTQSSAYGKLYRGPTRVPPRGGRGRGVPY
Dual specificity mitogen-activated protein kinase kinase 2, sequence (P36507 whole entry): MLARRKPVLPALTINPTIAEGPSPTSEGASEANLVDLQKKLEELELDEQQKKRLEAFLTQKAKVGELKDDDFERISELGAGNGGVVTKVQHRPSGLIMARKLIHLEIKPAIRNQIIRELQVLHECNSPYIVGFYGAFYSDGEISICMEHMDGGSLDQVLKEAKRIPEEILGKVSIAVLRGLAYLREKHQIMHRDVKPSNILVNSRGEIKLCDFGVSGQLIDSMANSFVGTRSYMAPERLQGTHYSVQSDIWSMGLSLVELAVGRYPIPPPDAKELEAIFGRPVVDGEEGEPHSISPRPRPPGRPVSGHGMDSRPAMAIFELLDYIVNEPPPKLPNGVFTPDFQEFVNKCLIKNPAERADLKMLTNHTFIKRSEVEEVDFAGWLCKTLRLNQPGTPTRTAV
Ribosomal protein S6 kinase alpha-5, sequence (O75582 whole entry): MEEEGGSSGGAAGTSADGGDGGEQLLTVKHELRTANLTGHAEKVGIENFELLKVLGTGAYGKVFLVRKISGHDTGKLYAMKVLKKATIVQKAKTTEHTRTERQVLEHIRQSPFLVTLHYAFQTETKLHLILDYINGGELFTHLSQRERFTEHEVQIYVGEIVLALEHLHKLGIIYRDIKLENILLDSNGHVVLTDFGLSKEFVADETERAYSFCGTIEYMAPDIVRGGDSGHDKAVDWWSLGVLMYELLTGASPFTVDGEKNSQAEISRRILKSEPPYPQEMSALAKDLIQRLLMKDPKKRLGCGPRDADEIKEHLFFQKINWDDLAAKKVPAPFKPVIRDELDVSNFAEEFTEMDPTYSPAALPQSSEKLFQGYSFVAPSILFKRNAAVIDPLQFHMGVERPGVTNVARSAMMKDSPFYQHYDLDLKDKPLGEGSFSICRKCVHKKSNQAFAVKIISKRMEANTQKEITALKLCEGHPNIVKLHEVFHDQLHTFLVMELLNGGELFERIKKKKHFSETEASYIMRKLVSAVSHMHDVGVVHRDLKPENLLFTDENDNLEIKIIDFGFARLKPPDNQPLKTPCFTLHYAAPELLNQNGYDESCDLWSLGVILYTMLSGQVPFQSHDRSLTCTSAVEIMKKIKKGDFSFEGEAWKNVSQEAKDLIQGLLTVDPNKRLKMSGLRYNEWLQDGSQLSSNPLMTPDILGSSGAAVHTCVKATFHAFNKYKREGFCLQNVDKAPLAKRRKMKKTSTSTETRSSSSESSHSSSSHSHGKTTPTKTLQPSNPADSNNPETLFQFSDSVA
Maternal embryonic leucine zipper kinase, sequence (Q14680 whole entry): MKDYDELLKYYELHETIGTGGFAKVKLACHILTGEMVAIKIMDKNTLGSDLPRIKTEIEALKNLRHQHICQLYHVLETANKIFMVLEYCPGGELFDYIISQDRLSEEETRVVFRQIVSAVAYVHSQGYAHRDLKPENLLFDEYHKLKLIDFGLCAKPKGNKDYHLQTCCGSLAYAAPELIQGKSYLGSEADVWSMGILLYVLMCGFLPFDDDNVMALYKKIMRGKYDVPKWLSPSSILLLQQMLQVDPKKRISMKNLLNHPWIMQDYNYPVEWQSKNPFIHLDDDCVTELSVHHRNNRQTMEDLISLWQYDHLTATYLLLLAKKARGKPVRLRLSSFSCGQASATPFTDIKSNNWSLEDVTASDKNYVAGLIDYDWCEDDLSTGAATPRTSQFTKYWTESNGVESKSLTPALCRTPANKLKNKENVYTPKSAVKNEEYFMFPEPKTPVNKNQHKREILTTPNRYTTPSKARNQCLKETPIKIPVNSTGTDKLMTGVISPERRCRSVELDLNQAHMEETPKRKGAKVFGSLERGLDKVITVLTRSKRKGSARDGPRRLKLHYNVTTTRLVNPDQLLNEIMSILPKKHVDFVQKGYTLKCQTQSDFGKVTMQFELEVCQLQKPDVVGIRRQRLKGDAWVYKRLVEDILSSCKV

Compound | Kd [1] | Kd [2] | Kd [3] | Kd [4] | Kd [5] | Kd (TGF-beta receptor type-2) | Kd (DNA topoisomerase 2-beta) | Kd [6] | Kd [7] | Kd [8] | Kd [9] | Kd [10] | Kd [11] | Kd [12] | Kd [13] | Kd [14]
CC[C@H](Nc1ncnc2[nH]cnc12)c1nc2cccc(F)c2c(=O)n1-c1ccccc1 [IDELALISIB] | > 30 µM (inactive) | > 30 µM (inactive) | > 30 µM (inactive) | > 30 µM (inactive) | > 30 µM (inactive) | > 30 µM (inactive) | > 30 µM (inactive) | > 30 µM (inactive) | > 30 µM (inactive) | > 30 µM (inactive) | > 30 µM (inactive) | > 30 µM (inactive) | > 30 µM (inactive) | > 30 µM (inactive) | > 30 µM (inactive) | 
O=C(O)[C@]1(Cc2cccc(Nc3nccs3)n2)CC[C@@H](Oc2cccc(Cl)c2F)CC1 [MK-5108] | > 30 µM (inactive) | > 30 µM (inactive) | > 30 µM (inactive) | 0.707 µM (active) | > 30 µM (inactive) | > 30 µM (inactive) | > 30 µM (inactive) | > 30 µM (inactive) | > 30 µM (inactive) | > 30 µM (inactive) | > 30 µM (inactive) | > 30 µM (inactive) | > 30 µM (inactive) | > 30 µM (inactive) | > 30 µM (inactive) | > 30 µM (inactive)
CO[C@H]1C[C@@H]2CC[C@@H](C)[C@@](O)(O2)C(=O)C(=O)N2CCCC[C@H]2C(=O)O[C@H]([C@H](C)C[C@@H]2CC[C@@H](OCCO)[C@H](OC)C2)CC(=O)[C@H](C)/C=C(\C)[C@@H](O)[C@@H](OC)C(=O)[C@H](C)C[C@H](C)/C=C/C=C/C=C/1C [EVEROLIMUS] | > 30 µM (inactive) | > 30 µM (inactive) | > 30 µM (inactive) | > 30 µM (inactive) | > 30 µM (inactive) | > 30 µM (inactive) | > 30 µM (inactive) | > 30 µM (inactive) | > 30 µM (inactive) | > 30 µM (inactive) | > 30 µM (inactive) | > 30 µM (inactive) | > 30 µM (inactive) | > 30 µM (inactive) | > 30 µM (inactive) | > 30 µM (inactive)
CC(C)Nc1cc(-c2c[nH]c(C(=O)N[C@H](CO)c3cccc(Cl)c3)c2)c(Cl)cn1 [ULIXERTINIB] | > 30 µM (inactive) | > 30 µM (inactive) | > 30 µM (inactive) | > 30 µM (inactive) | > 30 µM (inactive) | > 30 µM (inactive) | > 30 µM (inactive) | > 30 µM (inactive) | > 30 µM (inactive) | > 30 µM (inactive) | > 30 µM (inactive) | > 30 µM (inactive) | > 30 µM (inactive) | > 30 µM (inactive) | > 30 µM (inactive) | > 30 µM (inactive)
COC(=O)N[C@@H](C)CNc1nccc(-c2cn(C(C)C)nc2-c2cc(Cl)cc(NS(C)(=O)=O)c2F)n1 [ENCORAFENIB] | > 30 µM (inactive) | 0.915 µM (active) | > 30 µM (inactive) | > 30 µM (inactive) | > 30 µM (inactive) | > 30 µM (inactive) | > 30 µM (inactive) | > 30 µM (inactive) | > 30 µM (inactive) | > 30 µM (inactive) | > 30 µM (inactive) | > 30 µM (inactive) | > 30 µM (inactive) | > 30 µM (inactive) | > 30 µM (inactive) | > 30 µM (inactive)
N[C@@H]1CCCN(c2c(/C=C3\SC(=O)NC3=O)cccc2-c2ccccc2)C1 | > 30 µM (inactive) | > 30 µM (inactive) | > 30 µM (inactive) | > 30 µM (inactive) | > 30 µM (inactive) |  | > 30 µM (inactive) | > 30 µM (inactive) | > 30 µM (inactive) | > 30 µM (inactive) | > 30 µM (inactive) | > 30 µM (inactive) | > 30 µM (inactive) | > 30 µM (inactive) | > 30 µM (inactive) | > 30 µM (inactive)
CNC(=O)c1cc(Oc2ccc(NC(=O)Nc3ccc(Cl)c(C(F)(F)F)c3)c(F)c2)ccn1 [REGORAFENIB] | > 30 µM (inactive) | > 30 µM (inactive) | > 30 µM (inactive) | > 30 µM (inactive) | > 30 µM (inactive) | > 30 µM (inactive) | > 30 µM (inactive) | > 30 µM (inactive) | > 30 µM (inactive) | > 30 µM (inactive) | > 30 µM (inactive) | > 30 µM (inactive) | > 30 µM (inactive) | > 30 µM (inactive) | > 30 µM (inactive) | 
CC[C@@H]1C(=O)N(C)c2cnc(Nc3ccc(C(=O)N[C@H]4CC[C@H](N5CCN(CC6CC6)CC5)CC4)cc3OC)nc2N1C(C)C [VOLASERTIB] | > 30 µM (inactive) | > 30 µM (inactive) | > 30 µM (inactive) | > 30 µM (inactive) | > 30 µM (inactive) | > 30 µM (inactive) | > 30 µM (inactive) | > 30 µM (inactive) | > 30 µM (inactive) | > 30 µM (inactive) | > 30 µM (inactive) | > 30 µM (inactive) | > 30 µM (inactive) | > 30 µM (inactive) | > 30 µM (inactive) | 
CCS(=O)(=O)N1CC(CC#N)(n2cc(-c3ncnc4[nH]ccc34)cn2)C1 [BARICITINIB] | > 30 µM (inactive) | > 30 µM (inactive) | > 30 µM (inactive) | > 30 µM (inactive) | > 30 µM (inactive) | > 30 µM (inactive) | > 30 µM (inactive) | > 30 µM (inactive) | > 30 µM (inactive) | > 30 µM (inactive) | > 30 µM (inactive) | > 30 µM (inactive) | > 30 µM (inactive) | > 30 µM (inactive) |  | 0.078 µM (active)
